According to PubChem BioAssay (NCI):
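The compound was tested at five concentrations on cells cultured in 96-well plates, with a 48-hour exposure period. TGI is the concentration that stops growth completely.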

Columns and labels:
Assay in all cases: NCI-60 cell line screen, 48 h
IGROV1 ovarian = tested on: IGROV1 ovarian
SNB-75 CNS = tested on: SNB-75 CNS
SK-MEL-2 melanoma = tested on: SK-MEL-2 melanoma
DMS 273 small cell lung = tested on: DMS 273 small cell lung
CAKI-1 renal = tested on: CAKI-1 renal
UO-31 renal = tested on: UO-31 renal
DLD-1 colon = tested on: DLD-1 colon
A549 NSCLC = tested on: A549 NSCLC
K-562 leukemia = tested on: K-562 leukemia
SK-MEL-5 melanoma = tested on: SK-MEL-5 melanoma
KM20L2 colon = tested on: KM20L2 colon
M19-MEL melanoma = tested on: M19-MEL melanoma
HCT-116 colon = tested on: HCT-116 colon
LXFL 529 NSCLC = tested on: LXFL 529 NSCLC
HCC-2998 colon = tested on: HCC-2998 colon
MOLT-4 leukemia = tested on: MOLT-4 leukemia
U251 CNS = tested on: U251 CNS
UACC-62 melanoma = tested on: UACC-62 melanoma
NCI-H23 lung = tested on: NCI-H23 lung
SF-295 CNS = tested on: SF-295 CNS
LOX IMVI melanoma = tested on: LOX IMVI melanoma
TK-10 renal = tested on: TK-10 renal
EKVX NSCLC = tested on: EKVX NSCLC
OVCAR-8 ovarian = tested on: OVCAR-8 ovarian
COLO 205 colon = tested on: COLO 205 colon
DMS 114 small cell lung = tested on: DMS 114 small cell lung
CCRF-CEM leukemia = tested on: CCRF-CEM leukemia
OVCAR-5 ovarian = tested on: OVCAR-5 ovarian
M14 melanoma = tested on: M14 melanoma
786-0 renal = tested on: 786-0 renal
SNB-19 CNS = tested on: SNB-19 CNS
KM12 colon = tested on: KM12 colon
XF 498 CNS = tested on: XF 498 CNS
OVCAR-3 ovarian = tested on: OVCAR-3 ovarian
SW-620 colon = tested on: SW-620 colon
SK-MEL-28 melanoma = tested on: SK-MEL-28 melanoma
SN12C renal = tested on: SN12C renal
ACHN renal = tested on: ACHN renal
A498 renal = tested on: A498 renal
HCT-15 colon = tested on: HCT-15 colon
NCI-H460 lung = tested on: NCI-H460 lung
OVCAR-4 ovarian = tested on: OVCAR-4 ovarian
SF-268 CNS = tested on: SF-268 CNS
NCI-H522 lung = tested on: NCI-H522 lung
NCI-H226 lung = tested on: NCI-H226 lung
SK-OV-3 ovarian = tested on: SK-OV-3 ovarian
HOP-92 NSCLC = tested on: HOP-92 NSCLC
MALME-3M melanoma = tested on: MALME-3M melanoma
HT29 colon = tested on: HT29 colon
SF-539 CNS = tested on: SF-539 CNS
SR leukemia = tested on: SR leukemia
BT-549 breast = tested on: BT-549 breast
PC-3 prostate = tested on: PC-3 prostate
HL-60(TB) leukemia = tested on: HL-60(TB) leukemia
MDA-N = tested on: MDA-N
RPMI-8226 leukemia = tested on: RPMI-8226 leukemia
T-47D breast = tested on: T-47D breast
RXF 393 renal = tested on: RXF 393 renal
DU-145 prostate = tested on: DU-145 prostate
NCI/ADR-RES ovarian = tested on: NCI/ADR-RES ovarian
HS 578T breast = tested on: HS 578T breast
MDA-MB-231 breast = tested on: MDA-MB-231 breast
UACC-257 melanoma = tested on: UACC-257 melanoma
MDA-MB-435 = tested on: MDA-MB-435
MCF7 breast = tested on: MCF7 breast

Measured: TGI

COC(=O)c1cc(CC(C)C)c2c(c1)[nH]c1ccccc12
not listed: SR leukemia | BT-549 breast | PC-3 prostate | HL-60(TB) leukemia | MDA-N | RPMI-8226 leukemia | T-47D breast | RXF 393 renal | DU-145 prostate | NCI/ADR-RES ovarian | HS 578T breast | MDA-MB-231 breast | UACC-257 melanoma | MDA-MB-435 | MCF7 breast
> 100 µM: all other assays above

c1sc(NC2=NCCO2)c2c1CCCC2
not listed: DMS 273 small cell lung | DLD-1 colon | KM20L2 colon | M19-MEL melanoma | LXFL 529 NSCLC | DMS 114 small cell lung | XF 498 CNS | SN12C renal | SF-268 CNS
> 100 µM: all other assays above
